Measurements as given in patent publication US8318762B2, “Pyrazolospiroketone acetyl-CoA carboxylase inhibitors” (Pfizer Inc., priority 2008, dated 2012).

Assays:
recombinant human ACC2 = target: T1, recombinant human ACC2 (Homo sapiens, UniProt O00763); assay: Measurement of human ACC2 inhibition (recombinant hACC2 Transcreener ADP detection FP assay); format: biochemical; details: recombinant hACC2 transcreener assay; read-out: rhACC2 IC50
T1 construct: a full length Cytomax clone of ACC2 was purchased from Cambridge Bioscience Limited; made in house; host or cells: CHO cells (tetracycline induction, pcDNA5 FRT TO-TOPO); purified on a Softlink Soft Release Avidin column
T1 sequence (O00763 whole entry): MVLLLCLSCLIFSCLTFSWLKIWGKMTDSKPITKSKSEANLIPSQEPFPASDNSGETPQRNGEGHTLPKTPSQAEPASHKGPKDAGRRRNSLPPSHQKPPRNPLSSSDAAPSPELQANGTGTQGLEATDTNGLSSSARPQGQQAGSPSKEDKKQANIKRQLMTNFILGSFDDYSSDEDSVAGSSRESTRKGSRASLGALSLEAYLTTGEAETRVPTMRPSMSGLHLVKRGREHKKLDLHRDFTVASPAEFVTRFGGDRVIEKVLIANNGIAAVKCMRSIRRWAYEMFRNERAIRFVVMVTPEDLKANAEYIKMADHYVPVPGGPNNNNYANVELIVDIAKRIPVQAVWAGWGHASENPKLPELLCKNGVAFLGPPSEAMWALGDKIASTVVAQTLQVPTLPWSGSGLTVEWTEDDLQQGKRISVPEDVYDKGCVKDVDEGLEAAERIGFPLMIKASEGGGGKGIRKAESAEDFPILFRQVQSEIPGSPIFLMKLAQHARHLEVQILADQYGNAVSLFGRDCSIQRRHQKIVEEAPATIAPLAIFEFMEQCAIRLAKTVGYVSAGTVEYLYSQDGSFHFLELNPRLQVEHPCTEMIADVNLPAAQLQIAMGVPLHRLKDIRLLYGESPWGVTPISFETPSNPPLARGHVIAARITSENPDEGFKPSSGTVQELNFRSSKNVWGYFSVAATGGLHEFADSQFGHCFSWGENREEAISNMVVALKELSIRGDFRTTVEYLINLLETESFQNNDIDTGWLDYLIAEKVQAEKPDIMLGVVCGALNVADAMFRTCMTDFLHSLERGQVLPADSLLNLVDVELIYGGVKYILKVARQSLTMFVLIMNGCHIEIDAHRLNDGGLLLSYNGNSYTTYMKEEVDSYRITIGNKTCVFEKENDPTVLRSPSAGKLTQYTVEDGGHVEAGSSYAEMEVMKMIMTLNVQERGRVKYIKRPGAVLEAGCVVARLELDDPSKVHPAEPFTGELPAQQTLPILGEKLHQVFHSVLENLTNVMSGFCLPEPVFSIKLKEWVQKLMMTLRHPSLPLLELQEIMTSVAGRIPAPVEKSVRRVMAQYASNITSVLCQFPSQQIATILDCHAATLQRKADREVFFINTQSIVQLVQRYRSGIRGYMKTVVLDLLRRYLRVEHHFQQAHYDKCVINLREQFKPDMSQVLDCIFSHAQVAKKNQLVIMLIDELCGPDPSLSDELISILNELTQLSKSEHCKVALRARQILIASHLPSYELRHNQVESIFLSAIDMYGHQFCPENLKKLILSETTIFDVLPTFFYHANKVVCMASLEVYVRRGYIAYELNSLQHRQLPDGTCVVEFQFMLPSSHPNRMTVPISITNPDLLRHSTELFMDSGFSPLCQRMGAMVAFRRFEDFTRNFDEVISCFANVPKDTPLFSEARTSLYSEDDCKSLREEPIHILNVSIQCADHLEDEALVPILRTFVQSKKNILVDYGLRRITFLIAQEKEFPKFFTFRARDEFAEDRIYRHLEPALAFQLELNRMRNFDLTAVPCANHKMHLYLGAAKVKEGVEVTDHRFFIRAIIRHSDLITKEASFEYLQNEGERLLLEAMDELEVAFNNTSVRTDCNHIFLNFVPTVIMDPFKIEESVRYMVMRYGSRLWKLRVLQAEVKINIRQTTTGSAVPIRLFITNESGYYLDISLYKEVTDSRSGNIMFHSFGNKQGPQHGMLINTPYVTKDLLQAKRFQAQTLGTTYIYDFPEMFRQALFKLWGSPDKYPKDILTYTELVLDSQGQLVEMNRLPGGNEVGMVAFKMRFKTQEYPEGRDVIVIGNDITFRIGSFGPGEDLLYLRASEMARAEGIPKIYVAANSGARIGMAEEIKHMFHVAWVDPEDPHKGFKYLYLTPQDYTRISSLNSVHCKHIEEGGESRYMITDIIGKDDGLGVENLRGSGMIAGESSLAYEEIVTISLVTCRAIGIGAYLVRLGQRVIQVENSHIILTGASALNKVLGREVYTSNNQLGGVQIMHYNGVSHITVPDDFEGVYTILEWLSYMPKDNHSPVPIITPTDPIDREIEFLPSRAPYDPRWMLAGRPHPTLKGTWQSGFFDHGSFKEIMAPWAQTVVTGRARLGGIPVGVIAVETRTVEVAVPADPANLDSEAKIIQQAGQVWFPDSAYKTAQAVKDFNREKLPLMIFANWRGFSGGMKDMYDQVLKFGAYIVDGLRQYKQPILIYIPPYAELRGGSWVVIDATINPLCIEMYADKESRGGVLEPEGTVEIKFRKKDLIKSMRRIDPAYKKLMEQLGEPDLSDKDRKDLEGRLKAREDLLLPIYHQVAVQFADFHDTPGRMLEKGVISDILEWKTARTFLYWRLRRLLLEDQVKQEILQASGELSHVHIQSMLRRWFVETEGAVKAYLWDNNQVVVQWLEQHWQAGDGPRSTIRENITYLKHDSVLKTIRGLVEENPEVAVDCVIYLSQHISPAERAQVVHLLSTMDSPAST
Method in brief: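 Purified hACC2 from tetracycline-induced CHO cells (avidin-column eluate) was run in 50 mM HEPES pH7.5, 5 mM MgCl2, 5 mM citrate, 2 mM DTT, 0.5 mg/mL BSA with 30 μM acetyl-CoA, 50 μM ATP and 8 mM KHCO3. Reaction lasted 1 hour at room temperature; ADP was detected by Transcreener FP after another 1 hour.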

rat liver ACC = rat liver ACC (Rattus norvegicus, UniProt P11497); format: biochemical; details: rat liver ACC radio enzymatic assay
Method: [1] Preparation of rat liver ACC. Rat liver ACC was obtained from rat liver based upon standard procedures such as those described by Thampy and Wakil (J. Biol. Chem. 260: 6318-6323; 1985) using the following method.
Male CD rats weighing 150-200 g were fasted for 18-24 hours and then fed a high sucrose diet (AIN-76A rodent diet; Cat # D10001, Research Diets Inc., New Brunswick, N.J.), for 3 days at which time they were sacrificed by CO2 asphyxiation. The livers were removed, rinsed in ice-cold phosphate-buffered saline (PBS), and homogenized in 5 volumes of homogenization buffer (50 mM potassium phosphate, pH 7.5, 10 mM EDTA, 10 mM 2-mercaptoethanol, 2 mM benzamidine, 0.2 mM phenylmethylsulfonylfluoride (PMSF), 5 mg/L each leupeptin, aprotinin, and antitrypsin) in a Waring® blender for 1 minute at 4° C. All subsequent operations were carried out at 4° C. The homogenate has made 3% with respect to polyethylene glycol (PEG) by the addition of 50% PEG solution and centrifuged at 20,000×g for 15 minutes. The resulting supernatant was adjusted to 5% PEG with the addition of 50% PEG solution and stirred for 5 minutes. The pellet (contains ACC activity) was collected by centrifugation at 20,000×g for 20 minutes, rinsed with ice-cold doubly distilled water to remove excess PEG and re-suspended in one-fourth the original homogenate volume with homogenization buffer. Ammonium sulfate (200 g/liter) was slowly added with stirring. After 45 minutes the enzyme is collected by centrifugation for 30 minutes at 20,000×g, re-suspended in 10 mL of 50 mM HEPES, pH7.5, 0.1 mM DTT, 1.0 mM EDTA, and 10% glycerol and desalted on a Sephadex™ G-25 column (2.5 cm×50 cm) (Pharmacia, Piscataway N.J. now GE Healthcare) equilibrated with the same buffer. The desalted enzyme preparation was stored in aliquots at −70° C. Immediately prior to use, frozen rat liver ACC aliquots were thawed, diluted to 500 μg/mL in buffer containing 50 mM HEPES, pH7.5, 10 mM MgCl2, 10 mM tripotassium citrate, 2.0 mM dithiothreitol (DTT), and 0.75 mg/mL fatty acid-free bovine serum albumin (BSA) and pre-incubated at 37° C. for 30 minutes.
[2] Measurement of rat liver ACC inhibition. For measurement of ACC activity and assessment of ACC inhibition, test compounds were dissolved in dimethylsulfoxide (DMSO) and 1 μL aliquots were added to a clear bottom, 96-well plates (Perkin-Elmer PN#1450-514). Control wells contain 1 μL of DMSO alone or 1 μL of high inhibition compound. The enzyme obtained from rat liver as described above was activated in Enzyme buffer at 37° C. for 30 minutes prior to addition to compound plate. All wells receive 75 μL of activated enzyme (1.33×) in a buffer containing 50 mM HEPES, pH7.5, 7.5 mM MgCl2 7.5 mM tripotassium citrate, 2 mM DTT, 50 mg/mL BSA. The activated enzyme was pre-incubated with the cmpd for 10 minute prior to initiating the reaction through the addition of 25 μL of substrate solution containing 50 mM HEPES, pH7.5, 7.5 mM MgCl2 7.5 mM tripotassium citrate, 2 mM DTT, 50 mg/mL BSA, 120 μM acetyl-CoA, 8.0 mM ATP, 38.4 mM KHCO3, and 1.6 mM NaH[^14C]O3 ([…]). The final substrate concentrations in the reaction were 30 μM Acetyl-CoA, 9.6 mM KHCO3, 0.4 mM NaH[^14C]O3, and 2 mM ATP. The reaction was terminated after 10 mins by the addition of 25 μL 3N HCl and the plates were dried at 50° C. for a minimum 20 hrs. 30 μL of water was added to the dried plate and mixed for 5 minutes. 95 μL of Optiphase Supermix liquid scintillation fluid (Perkin Elmer, Waltham, Mass.) was added and the plates are mixed for 20 minutes. Incorporation of ^14C into MCoA was measured using a Wallac Trilux 1450 Microbeta LSC luminescence counter.

[1] = tested on: malonyl-CoA levels in liver; assay: Acute in vivo assessment of ACC inhibition: malonyl-CoA levels in liver tissue; parameters: species or system male Sprague-Dawley Rats; details: relative to chow-fed vehicle control group, % decrease +/- SEM
Method: (§1) The ACC inhibitory activity of the compound of the present invention can be confirmed in vivo by evaluation of their ability to reduce malonyl-CoA levels in liver and muscle tissue from treated animals.
(§2) Measurement of malonyl-CoA production inhibition in experimental animals. In this method, male Sprague-Dawley Rats, maintained on standard chow and water ad libitum (225-275 g), were randomized prior to the study. Animals were either fed, or fasted for 18 hours prior to the beginning of the experiment. Two hours into the light cycle the animals were orally dosed with a volume of 5 mL/kg, (0.5% methyl cellulose; vehicle) or with the appropriate compound (prepared in vehicle). Fed vehicle controls were included to determine baseline tissue malonyl-CoA levels while fasted animals were included to determine the effect fasting had on malonyl-CoA levels. One hour after compound administration the animals were asphyxiated with CO2 and the tissues were removed. Specifically, blood was collected by cardiac puncture and placed into BD Microtainer tubes containing EDTA (BD Biosciences, NJ), mixed, and placed on ice. Plasma was used to determine drug exposure. Liver and quadriceps were removed, immediately freeze-clamped, wrapped in foil and stored in liquid nitrogen.
(§3) Tissues were pulverized under liquid N2 to ensure uniformity in sampling. Malonyl-CoA was extracted from the tissue (150-200 mg) with 5 volumes 10% […] in Lysing Matrix A (MP Biomedicals, PN 6910) in a FastPrep FP120 (Thermo Scientific, speed=5.5; for 45 seconds). The supernatant containing malonyl-CoA was removed from the cell debris after centrifugation at 15000×g for 30 minutes (Eppendorf Centrifuge 5402). Samples were stably frozen at −80 C until analysis is completed.
(§4) Analysis of malonyl CoA levels in liver and muscle tissue can be evaluated using the following methodology.
(§5) The method utilizes the following materials: Malonyl-CoA tetralithium salt and malonyl-^13C3-CoA trilithium salt which were purchased from Isotec (Miamisburg, Ohio, USA), sodium perchlorate (Sigma, cat no. 410241), trichloroacetic acid (ACROS, cat no. 42145), phosphoric acid (J. T. Baker, cat no. 0260-01), ammonium formate (Fluke, cat no. 17843), methanol (HPLC grade, J. T. Baker, cat no. 9093-33), and water (HPLC grade, J. T. Baker, 4218-03) were used to make the necessary mobile phases. Strata-X on-line solid phase extraction columns, 25 μm, 20 mm×2.0 mm I.D (cat no. 00M-S033-B0-CB) were obtained from Phenomenex (Torrance, Calif., USA). SunFire C18 reversed-phase columns, 3.5 μm, 100 mm×3.0 mm I.D. (cat no. 186002543) were purchased from Waters Corporation (Milford, Mass., USA).
(§6) This method may be performed utilizing the following equipment. Two-dimensional chromatography using an Agilent 1100 binary pump, an Agilent 1100 quaternary pump and two Valco Cheminert 6-port two position valves. Samples were introduced via a LEAP HTC PAL auto sampler with Peltier cooled stack maintained at 10° C. and a 20 μL sampling loop. The needle wash solutions for the autosampler are 10% trichloroacetic acid in water (w/v) for Wash 1 and 90:10 methanol:water for Wash 2. The analytical column (Sunfire) was maintained at 35° C. using a MicroTech Scientific Micro-LC Column Oven. The eluant was analyzed on an ABI Sciex API3000 triple quadrupole mass spectrometer with Turbo Ion Spray.
(§7) Two-dimensional chromatography was performed in parallel using distinct gradient elution conditions for on-line solid phase extraction and reversed-phase chromatography. The general design of the method was such that the first dimension was utilized for sample clean-up and capture of the analyte of interest followed by a brief coupling of both dimensions for elution from the first dimension onto the second dimension. The dimensions were subsequently uncoupled allowing for gradient elution of the analyte from the second dimension for quantification while simultaneously preparing the first dimension for the next sample in the sequence. […]

[2] = tested on: malonyl-CoA levels in muscle tissue; assay: Acute in vivo assessment of ACC inhibition: malonyl-CoA levels in muscle tissue (quadriceps); parameters: species or system male Sprague-Dawley Rats; details: relative to chow-fed vehicle control group, % decrease +/- SEM
Method: as §1, §2, §3, §4, §5, §6, §7

CCOc1cc(C(=O)N2CCC3(CC2)CC(=O)c2nn(C(C)C)cc2O3)cc2cn[nH]c12 [1.123]
IC50 (recombinant human ACC2): 0.014 µM
IC50 (rat liver ACC): 0.016 µM

Cc1cc(C(=O)N2CCC3(CC2)CC(=O)c2nn(C(C)C)cc2O3)cc2cn[nH]c12 [1.022]
IC50 (recombinant human ACC2): 0.028 µM
IC50 (rat liver ACC): 0.022 µM

Cc1c(C(=O)N2CCC3(CC2)CC(=O)c2nn(C(C)(C)C)cc2O3)ccc2[nH]ncc12 [1.147]
IC50 (recombinant human ACC2): 0.049 µM
IC50 (rat liver ACC): 0.015 µM

Cc1n[nH]c2c(C)cc(C(=O)N3CCC4(CC3)CC(=O)c3nn(C5CCOC5)c(C)c3O4)cc12 (stereo not shown) [1.015]
IC50 (recombinant human ACC2): 0.02 µM
IC50 (rat liver ACC): 0.021 µM

CCCn1cc2c(n1)C(=O)CC1(CCN(C(=O)c3cc(C)c4[nH]ncc4c3)CC1)O2 [1.027]
IC50 (recombinant human ACC2): 0.043 µM
IC50 (rat liver ACC): 0.048 µM

CC(C)(C)n1cc2c(n1)C(=O)CC1(CCN(C(=O)c3ccc4[nH]ncc4c3)CC1)O2 [1.074]
Percent decrease in Liver Malonyl-CoA ([1]; dose 1 mg/kg): 34.97 (2.59) %
Percent decrease in Liver Malonyl-CoA ([1]; dose 3 mg/kg): 53.97 (1.19) %
Percent decrease in Liver Malonyl-CoA ([1]; dose 10 mg/kg): 70.74 (3.49) %
Percent decrease in Liver Malonyl-CoA ([1]; dose 30 mg/kg): 63.60 (3.57) %
Percent decrease in Muscle Malonyl-CoA (quadriceps) ([2]; dose 1 mg/kg): 2.34 (5.44) %
Percent decrease in Muscle Malonyl-CoA (quadriceps) ([2]; dose 3 mg/kg): 24.42 (6.83) %
Percent decrease in Muscle Malonyl-CoA (quadriceps) ([2]; dose 10 mg/kg): 49.00 (2.40) %
Percent decrease in Muscle Malonyl-CoA (quadriceps) ([2]; dose 30 mg/kg): 57.06 (2.04) %
IC50 (rat liver ACC): 0.017 µM
